Values quoted from earlier work, collected in patent publication US11202772B2, “Duloxetine sprinkles” (priority 2016, dated 2021).

CNCCC(Oc1cccc2ccccc12)c1cccs1 (single isomer, unassigned; (+)) [Duloxetine, (+)-N-methyl-3-(1-naphthalenyloxy)-3-(2-thienyl)propan-1-amine]
drug in the dosage hydrolyzed to 1-naphthol (pH 1.0): 50% | drug degrades to 1-naphthol (pH of 2.0, in one hour): 10% | time for 10% degradation (pH of 4.0): up to 63 hours
